What was measured:
[1] = CCI induced TBI mice: food intake and body weight; assay type: in vivo; details: data not shown
Procedure: Controlled cortical impact (CCI) induced TBI was performed in male C57BL6/J mice (20-25 g). Briefly, after a 10-mm midline incision was made over the skull, the skin and fascia were retracted, and a 4-mm craniotomy was made on the central aspect of the left parietal bone of mice under surgical anesthesia (2-3% isoflurane evaporated in a gas mixture containing 70% N20 and 30% 02). Moderate injury was induced in the exposed brain by a custom microprocessor-controlled and compressed air driven pneumatic impactor of 3.5 mm diameter tip with the impact velocity of 6 m/s and a deformation depth of 2 mm.
N-Acetyl-L-Leucine (“NAL” or “NALL”) was dissolved in ethanol to prepare a 50 mg/ml solution which was then diluted in water to give a 10 mg/ml solution. About 0.25 ml of the NAL solution (10 mg/ml) was orally administered in mice at a […] (2.5 mg NAL/25 g mouse) via oral gavage each day after CCI induced TBI for 4 days. Mice were also fed with NAL at 0.5 mg/kg chow powder chow mixed with diet gel for up to 7 days after injury.

LC3-II and APP-CTFs = assay: EAL flux in NPC1 mice (cerebellum LC3-II and APP-CTFs); assay type: in vivo, mouse; details: treated 3 weeks
From the text: FIG. 14 is a histogram of the ratio of LC3-II expression to βIII-tubulin in the cerebellum of mouse NPC1 brains at 9-12 weeks of age treated with ADLL, ALL, ADL, DLL, LL, DL, LLE, and miglustat (miglu.) for 3 weeks relative to untreated NPC1 cerebellum (n=4, mean±S.E.M).
FIG. 15 is a histogram of the ratio of APP-CTFs: full-length APP expression in the cerebellum of mouse NPC1 brains at 9-12 weeks of age treated with ADLL, ALL, ADL, DLL, LL, DL, LLE, and miglustat (miglu.) for 3 weeks relative to untreated NPC1 cerebellum (n=4, mean±S.E.M).
FIG. 16 is a histogram of the ratio of APP-CTF-6: full-length APP expression in the cerebellum of mouse NPC1 brains at 9-12 weeks of age treated with ADLL, ALL, ADL, DLL, LL, DL, and LLE for 3 weeks relative to untreated NPC1 cerebellum.
FIG. 17 is a histogram of the ratio of APP-CTF-7: full-length APP expression in the cerebellum of mouse NPC1 brains at 9-12 weeks of age treated with ADLL, ALL, ADL, DLL, LL, DL, and LLE for 3 weeks relative to untreated NPC1 cerebellum (n=4, mean±S.E.M).
The efficacy of ADLL, ALL, ADL, DLL, LL, DL, and LLE in alleviating the impairment of EAL flux in NPC1 mice was investigated. […] Without wishing to be bound by any particular theory, it is possible that ADL and LLE reduced autophagic vacuole (AV) build-up by inhibiting autophagosome formation, possibly through the activation mTORC1. […] Also, acetyl L-leucine (ALL), acetyl D-leucine (ADL) and L-leucine (LL) reduced CTF-7 expression, indicating some improvement in lysosomal proteolysis (FIG. 17).

[2] = system: rat primary cortical neurons (NE and NG cultures); assay: Truncated tau and neuronal markers in neuron-enriched and neuron-glia cultures; assay type: cell-based
Procedure: FIG. 20 is eight Western blots of tau (5E2), synaptophysin and βIII-tubulin in rat primary cortical neurons (neuron-enriched (NE) and neuron-glia (NG) cultures) in the absence and presence of ADLL, ALL, ADL, DLL, LL, DL, and LLE (1 mM, 5 days).
The efficacy of ADLL, ALL, ADL, DLL, LL, DL, and LLE in reducing truncated tau levels in neuron-glia (NG) cultures was investigated. The results of this study are provided in FIGS. 20-24 One aim of this study was to determine whether ADLL, ALL, ADL, DLL, LL, DL, and LLE conferred intrinsic neuroprotection by sustaining neuronal function under conditions of cellular overgrowth, or whether they acted indirectly through the non-autonomous modulation of glial cells. Irrespective of whether the compounds acted directly or indirectly on neurons, preventing the generation of truncated tau confers beneficial effects to neuronal integrity.
Cultures were treated for five days (DIV 9-14) with 1 mM of ADLL, ALL, ADL, DLL, LL, DL, or LLE, and were subsequently assessed for a number of neuron-specific markers that could provide a readout on neuronal health: βIII-tubulin, full-length tau, truncated tau (antibody 5E2) and synaptophysin. ADLL, ALL, ADL, DLL, LL, DL, and LLE were well-tolerated in NE and NG cultures, as evidenced by consistently equal levels of synaptophysin and βIII-tubulin detected across untreated (control) and drug-treated samples (FIGS. 20, 23, and 24). None of ADLL, ALL, ADL, DLL, LL, DL, and LLE reduced basal levels of truncated tau in NG cultures at DIV14 (FIG. 20 and FIG. 22).

[3] = system: cerebellar Purkinje cells; assay: Purkinje cell survival in Npc1−/− mice; assay type: in vivo; details: 59 days of age, compared to Npc1−/− UT
From the text: (§1) FIG. 46 is an image showing cerebellar Purkinje cell loss progressing from anterior to posterior lobes and microglial activation in untreated Npc1^−/− mice and Npc1^−/− mice treated with ADLL, ALL, and ADL. Cerebellums were stained with calbindin-b (Purkinje cells) or CD68 (activated microglia).
FIG. 47 is a scatter graph showing Purkinje cell survival at 59 days of age in untreated Npc1^−/− mice and Npc1^−/− mice treated with ADLL, ALL, and ADL.
(§2) The combination of increased survival of neurons and a less inflammatory environment in the brain could improve brain function, quality of life, and delay the progression of disease in human subjects.

[4] = system: CD68 positive activated microglia; assay: CD68 positive activated microglia in cerebellum of Npc1−/− mice; assay type: in vivo; details: 59 days of age, compared to Npc1−/− UT
From the text: as §1
FIG. 48 is a scatter graph showing frequency of CD68 positive activated microglia at 59 days of age in untreated Npc1^−/− mice and Npc1^−/− mice treated with ADLL, ALL, and ADL. CD68 cell density was measured in the cerebellum. n=5 animals per group. Mean±SD, *** p<0.0009 (one-way ANOVA).
as §2

CC(=O)N[C@@H](CC(C)C)C(=O)O [ALL, acetyl-L-leucine]
change in body weight ([1]; NALL treated TBI mice): no appreciable change
food intake ([1]; sham vs TBI mice fed with NALL): No significant difference
CTF-7 expression / clearance (LC3-II and APP-CTFs): reduced
tolerability (levels of synaptophysin and βIII-tubulin vs untreated control) ([2]; NE and NG cultures, 1 mM, five days (DIV 9-14)): well-tolerated
reduction of basal levels of truncated tau ([2]; NG cultures at DIV14, 1 mM, five days): None
Purkinje cell survival in any cerebellar lobules [3]: did not improve
reduction of frequency of CD68 positive activated microglia [4]: 20%

Source: patent US20220142959A1, “LEUCINE, ACETYL LEUCINE, AND RELATED ANALOGS FOR TREATING DISEASE” (priority 2019, published 2022)
